Results on 3 compounds are retold here after patent publication US20160200762A1, “Bioactive polypeptide DELQ and preparation method as well as application thereof” (SHANGHAI JIAOTONG UNIVERSITY, priority 2012, published 2016).

Molecules are shown by their SMILES. Where a SMILES comes first, the peptide text is derived from it.

A short description of series [1]: simulated in vitro gastrointestinal digestion (pepsin, then pancreatin), UPLC-Q-TOF-MS analysis. The series is classed as in vitro ADME. To be noted: 500 μg/mL; pepsin pH 2.0 37° C. 90 min, then pancreatin pH 7.5 37° C. 150 min. The method, then:
The experiment is divided into two steps. Firstly, preparing a 500 μg/mL DELQ solution, adding pepsin with a ratio of 20 mg the pepsin for every gram of the DELQ, adjusting a pH value of the reaction solution to 2.0, reacting with a temperature kept in a 37° C. thermostatic waterbath for 90 min; then adjusting a pH value to 7.5, and adding pancreatin with a ratio of 40 mg the pancreatin for every gram of the DELQ, and reacting with a temperature kept in a 37° C. thermostatic waterbath for 150 min; inactivating disgestive enzymes with a 95° C. waterbath for 5 min; and freeze-drying the reaction solution for obtaining dry powder thereof, and storing at −20° C. for further use.
Picking 0.2 mg powder sample after stimulated in vitro gastrointestinal digestion, adding 50 μL water and 450 μL pure ethanol, thorough shocking before putting into a −20° C. freezer for 20 min, centrifuging at 15000 rpm for 30 min, collecting 400 μL supernatant for UPLC-Q-TOF-MS analysis. […]
According to the above experiment conditions, the bioactive polypeptides DELQ before and after treatment with digestive enzymes are analyzed by UPLC-Q-TOF-MS, a total ion stream obtained is shown in FIG. 11. […]

A short description of series [2]: in vitro antioxidant activity detection with the [DPPH.] method (radical removing rate). The class given is biochemical. The method, then: (1) Preparing 1 mmol/L [DPPH.] Methanol Solution:
Weighting […] [DPPH.] with the analytical balance and dissolving in 1 ml methanol solution for obtaining 1 mmol/L [DPPF.] methanol solution, storing with tinfoil for avoiding light, wherein the [DPPF.] methanol solution is prepared before use.
(2) Standard Curve Detection of [DPPH.] Methanol Solution:
Adding 100 μL [DPPH.] methanol standard curve sample into the 96-hole cell culturing plate according to a Table 2, waiting for 90 min at a room temperature, detecting absorbance values at 517 nm with the microplate reader.
Accordingly, curves are fitted and a regression equation is calculated with Excel, and results thereof are shown in FIG. 8 (the regression equation: y=−0.192x+0.2271, R^2=0.9991). […] From the results, absorbance values and [DPPF.] contents have an inverse relationship, i.e. the less the [DPPH.] content is, the […] the absorbance value will be, which means a stronger radical removing ability.
(3) Antioxidant Activity Detection of the Bioactive Polypeptide DELQ with [DPPH.] Method […]
2) blank group: adding 80 μL 1 mmol/L [DPPF.] methanol solution and 20 μL deionized water into the same 96-hole cell culturing plate for forming a blank group.
After adding the test sample, waiting at the room temperature for 90 min, detecting the absorbance values at 517 nm with the microplate reader, and calculating a radical removing ratio according to a following formula, wherein results thereof are shown in Table 3.
(Loss of DPPH colour is used to gauge radical scavenging.)

The nature of series [3]: total antioxidant capacity detection with the FRAP (Ferric Reducing Ability Power) method. The series is classed as biochemical. To be noted: sample concentration 4.00 mg/mL. The protocol:
(1) Preparing FRAP Working Fluid:
According to the FRAP detection reagent kit, thorough mixing 7.5 mL TPTZ diluent, 750 μL TPTZ solution, and 750 μL detection buffer, incubating in a 37° C. water bath, and using in 2 h.
(2) Drawing a FeSO4 Standard Curve:
Adding 180 μL FRAP working fluid into the 96-hole cell culturing plate, then adding 5 μL FeSO4 standard curve solution according to Table 4, gently mixing, incubating at 37° C. for 3-5 min, and detecting absorbance values at 593 nm with the microplate reader.
FeSO4 concentration and the absorbance value have a good proportional relationship, i.e. the higher the FeSO4 concentration is, the higher absorbance value will be. According to the present invention, FeSO4 standard curve results are shown in FIG. 10, the standard curve has a good linear relationship, wherein a correlation coefficient thereof is 0.998. Precision and accuracy of the FeSO4 curve satisfy testing requirements, and are applicable for subsequent calculation.
(3) Bioactive Polypeptide DELQ Antioxidant Capacity Detection with FRAP Method
Adding 180 μL FRAP working fluid into the 96-hole cell culturing plate, adding 5 μL ddH2O into a blank control hole, adding 5 μL testing sample into a sample hole, adding 5 μL phytic acid into a positive control, gently mixing, incubating at 37° C. for 3-5 min, and detecting absorbance values at 593 nm with the microplate reader. […]

In the case of `CC(C)C[C@H](NC(=O)[C@H](CCC(=O)O)NC(=O)[C@@H](N)CC(=O)O)C(=O)N[C@@H](CCC(N)=O)C(=O)O` [DELQ, Asp-Glu-Leu-Gln] (H-DELQ-OH; N-terminus and C-terminus assumed), the “stability under simulated in vitro gastrointestinal digestion” value in series [1] was “stable”.

Regarding `Cc1c(C)c2c(c(C)c1O)CCC(C)(C(=O)O)O2` (stereo not drawn) [Trolox], the “[DPPH.] radical removing rate” value in series [2] (positive control 1, 2.5 mg/mL Trolox) is reported as 99.96%; in series [2] (positive control 2, 0.025 g/mL Trolox), 71.08 ± 0.03%.

For the compound `O=P(O)(O)O[C@H]1[C@H](OP(=O)(O)O)[C@@H](OP(=O)(O)O)[C@H](OP(=O)(O)O)[C@@H](OP(=O)(O)O)[C@H]1OP(=O)(O)O` [phytic acid], in series [2] (negative control, concentration not given), the “[DPPH.] radical removing rate” value was found to be 58.49 ± 0.08%. The FRAP in series [3] is recorded as 0.0089 mmol/g. The “corresponding FeSO4 concentration” value in series [3] (593 nm) came out at 0.0356 ± 0.0055 mmol/L.
